Like-named read-outs stand apart in the source and are kept apart here.
Experiments:
[1] = system: bees from Varroa destructor infested colonies; assay type: in vivo, Apis mellifera
Experimental: Age-matched bees from colonies with higher (> 10 mites/100 bees) and lower (< 1 mite/100 bees) were placed in hoarding cages and allowed to feed ad libitum on sucrose solution alone or containing paraquat. Survivorship was assessed at 24-h intervals, and LT50 times were calculated by nonlinear regression using a Hill equation.

[2] = system: total antioxidant concentrations in bees; test: Total antioxidant capacity of bees (quantification of ROS); assay type: in vivo, Apis mellifera; settings: alone
Experimental: (§1) The ability of KATP modulators to rescue or synergize paraquat-induced mortality was then assessed by incorporating modulators into 1:1 sucrose containing paraquat. […] Quantification of ROS among survivors was performed using the Total Antioxidant Capacity Assay kit (Cayman Chemical).

phenoloxidase (POX) = test: Phenoloxidase activity of treated bees (individual immunity); assay type: in vivo, Apis mellifera
Experimental: (§2) Individual bees were sampled at 24-h intervals and frozen in liquid nitrogen. Social immunity was measured by quantifying the metabolism of glucose to hydrogen peroxide by glucose oxidase. Briefly, heads were homogenized in ice-cold extraction buffer then centrifuged at 15,000×g. Aliquots of supernatant were incubated with horse radish peroxidase and glucose at 37 °C, then combined with the chromogen o-dianisidine dihydrochloride. Absorbance was read at 430 nm over a period of 90 min and compared to sample blanks, lacking chromogen. To measure individual immunity, phenoloxidase activity was measured as described. Abdomens were homogenized as and centrifuged as previously described. Supernatant was incubated at 37 °C, then combined with the chromogen L-Dopa. Absorbance was measured at 490 nm for 20 min, then compared to sample blanks lacking chromogen. To compare both glucose oxidase and phenol oxidase activity between samples, Vmax was calculated using the Michaelis–Menten equation.

glucose oxidase (GOX) = test: Glucose oxidase activity of treated bees (social immunity); assay type: in vivo, Apis mellifera
Experimental: as §2

honey bees [3] = assay type: in vivo, Apis mellifera
Experimental: as §1

[4] = system: bees inoculated with Israeli acute paralysis virus (IAPV); test: IAPV-mediated mortality of bees fed KATP modulator or paraquat; assay type: in vivo, Apis mellifera; parameters: Survivorship after IAPV inoculation compared to IAPV alone: dose or concentration left out as unconfirmed
Experimental: IAPV was obtained following our previously described methods. Approximately 30 adult bees from a heavily infected IAPV infected colony were froze in liquid nitrogen, ground to a fine powder, and homogenized in a phosphate extraction buffer. The supernatant was collected after centrifuging the emulsion and filtered through a 0.2 micron filter. The filtrate was subsequently centrifuged at 30,000 rpm to pellet the picornavirus particles and was followed by resusopension in PBS and centrifuged at 52,000 rpm overnight. The fractions containing virus particles were dialyzed against cold PBS overnight. Verification that IAPV was the only virus present in the inoculum was performed via qRT-PCR and quantification of IAPV was performed by absolute quantification using standard curve method as previously described.
Bees were immobilized on ice, then injected with PBS alone or containing IAPV and returned to the incubator. […] Quantification of IAPV mRNA among whole bees and excised insect dorsal vessels was performed by qRT-PCR as detailed below.

honey bees [5] = assay type: in vivo, Apis mellifera; remark: listed apart in the source
Experimental: An LC50 for paraquat in 1:1 sucrose diet was determined for 72 h of oral exposure by constructing a concentration–response curve. The ability of KATP modulators to rescue or synergize paraquat-induced mortality was then assessed by incorporating modulators into 1:1 sucrose containing paraquat. Mortality assessments and sampling of surviving bees was conducted at 24-h intervals. Quantification of ROS among survivors was performed using the Total Antioxidant Capacity Assay kit (Cayman Chemical).

bee-relevant viruses = test: Field colony study, bee-relevant viruses overall; assay type: in vivo, Apis mellifera
Experimental: (§3) Nucleus colonies of bees were established as previously described and relocated to a geographically isolated apiary and were grown to full-size colonies and equalized based on population prior to initiation of the study. The bees were maintained in eight-frame Langstroth equipment and kept as single deeps with a medium super with undrawn foundation. […] DWV inoculum was prepared by injecting filter-sterilized homogenate from a DWV-positive symptomatic bee into white-eyed honey bee pupae. 72-h later, an aliquot of pupae was screened for preliminary confirmation of DWV infection and found to contain between 5E9 and 8E9 viral copies of DWV-A per individual. Remaining pupae were homogenized in ice-cold PBS, with aliquots retained for qRT-PCR screening of DWV, as well as additional viruses relevant to bee health. Homogenate solutions were diluted in 1:1 sucrose and placed in calibrated spray bottles. A treatment and sampling schedule was constructed based on the 21-day egg-to-adult life history of worker bees (Additional file 1: Fig. S1). Both pinacidil and virus solutions were prepared fresh daily. […] A quantity of 15 fully formed adult stage bees were removed from the capped cells and placed into 15 mL conical vials. All samples were stored on dry ice during field collection, then transferred to − 80 °C until virus quantification. Titers of DWV-A, DWV-B, BQCV, IAPV, LSV-1 and LSV-2 were quantified by qRT-PCR using primer sequences described in our previous publications.
(§4) Samples were removed from − 80 °C storage and placed in a nuclease-free chilled bead bath (~ 4 °C) to gently thaw. […] RNA concentrations were then quantified for each sample using the NanoDrop 1-C® instrument. […] Library construction was performed using the Quantitect Reverse Transcription kit according to manufacturer instructions (Qiagen, N.V.). Template cDNA was then quantified by NanoDrop 1-C® and standardized to 500 ng/uL by addition of nuclease-free H2O.
(§5) To accurately quantify virus infection, it was necessary to first construct a standard curve for each target virus. […]

Flock House virus (FHV) = system: Flock House virus (FHV); parameters: method as in PMID 28819165; settings: cited from earlier work
[6] = system: Black queen cell virus (BQCV); test: Field colony study, change in virus titer by qRT-PCR: BQCV; assay type: in vivo
Experimental: as §3, §4, §5

IAPV = IAPV mRNA titer in excised dorsal vessels by qRT-PCR; assay type: in vivo, Israeli acute paralysis virus; settings: pinacidil 24 h prior to IAPV inoculation; vessels excised 24 h post-inoculation
Experimental: Groups of 30 age-matched bees were fed 1:1 sucrose diet alone or containing KATP modulators or 0.5 mg/mL paraquat for 24 h. Bees were immobilized on ice, then injected with PBS alone or containing IAPV and returned to the incubator. Mortality assessments and sampling of survivors were conducted at 24-h intervals. Quantification of IAPV mRNA among whole bees and excised insect dorsal vessels was performed by qRT-PCR as detailed below.
as §4
To accurately quantify virus infection, it was necessary to first construct a standard curve for each target virus. […] Single-stranded DNA concentration was quantified for each cDNA library with the NanoDrop 1-C® instrument (Thermofisher Scientific) and the number of amplicon copies per μL of solution was determined using online calculators available at SciencePrimer.com. […]

LSV-2 = test: Field colony study, change in virus titer by qRT-PCR: LSV-2; assay type: in vivo, Lake Sinai virus; settings: emerging brood, 2 mM pinacidil, colony level
Experimental: as §3, with “individual.” for “individual. Remaining pupae were homogenized in ice-cold PBS, with aliquots retained for qRT-PCR screening of DWV, as well as additional viruses relevant to bee health. Homogenate solutions were diluted in 1:1 sucrose and placed in calibrated spray bottles. A treatment and sampling schedule was constructed based on the 21-day egg-to-adult life history of worker bees (Additional file 1: Fig. S1). Both pinacidil and virus solutions were prepared fresh daily.”
as §4, with “Template cDNA was then quantified by NanoDrop 1-C® and standardized to 500 ng/uL by addition of nuclease-free H2O.” left out

DWV-A = test: Field colony study, change in virus titer by qRT-PCR: DWV-A; assay type: in vivo, Deformed Wing virus
Experimental: as §3, §4, §5

bee dorsal vessel = system: bee dorsal vessel; parameters: method as in PMID 28412203; settings: cited from earlier work
DWV-B = test: Field colony study, change in virus titer by qRT-PCR: DWV-B; assay type: in vivo, Deformed Wing virus
Experimental: as §3, §4, §5

[7] = emerging brood, 2 mM pinacidil, colony level

C[n+]1ccc(-c2cc[n+](C)cc2)cc1 [paraquat, Paraquat dichloride hydrate]
Survivorship difference between low and high mite groups ([1]; 1 and 2 mg/mL paraquat): no statistical differences | LT50 (95% CI) ([1]; High mites, paraquat 0.1 mg/mL): 169 (142–177) Ba Hours | LT50 (95% CI) ([1]; High mites, paraquat 0.5 mg/mL): 99 (71–136) Bb Hours | LT50 (95% CI) ([1]; High mites, paraquat 1 mg/mL): 52 (22–84) Ac Hours | LT50 (95% CI) ([1]; High mites, paraquat 2 mg/mL): 47 (38–63) Ac Hours | LT50 (95% CI) ([1]; Low mites, paraquat 0.1 mg/mL): 82 (51–99) Aa Hours | LT50 (95% CI) ([1]; Low mites, paraquat 0.5 mg/mL): 66 (52–80) Ab Hours | LT50 (95% CI) ([1]; Low mites, paraquat 1 mg/mL): 54 (38–70) Ab Hours | LT50 (95% CI) ([1]; Low mites, paraquat 2 mg/mL): 49 (42–56) Ab Hours | Survivorship of bees from high versus low mite-infested colonies ([1]; paraquat 0.1 mg/mL, 96- to 168-h post treatment): significantly increased | Mortality in high mite versus low mite colonies ([1]; paraquat 0.5 mg/mL, 72- and 96-h post treatment): significant (P < 0.05) reduction of mortality | Reduction of total antioxidant concentrations compared to untreated ([2]; 24 h): 1.3 fold | Reduction of total antioxidant concentrations compared to control treatment ([2]; 48 h): 1.4 fold | POX activity (phenoloxidase (POX); 72 h post-exposure): significantly reduced | Decrease in GOX compared to pinacidil-treated bees (glucose oxidase (GOX); in vivo): 3.3 fold | Decrease in GOX compared to untreated bees (glucose oxidase (GOX); in vivo): 11 fold | LT50 (honey bees [3]; 0.5 mg/mL paraquat alone, injection experiment): ca. 75 h | LT50 (honey bees [3]; oral, paraquat exposure alone): ca. 68 h | Survivorship after IAPV inoculation compared to IAPV alone [4]: increased survivorship | Mortality of IAPV + paraquat versus untreated control ([4]; 0.5 mg/mL paraquat, 24- and 48-h post-inoculation): not significantly different | Mortality of paraquat + IAPV versus untreated and IAPV-only bees ([4]; 0.5 mg/mL paraquat, 72 h post-inoculation): significantly (P < 0.05) greater than untreated bees, but significantly less than IAPV-only treated bees | Mortality (honey bees [5]; paraquat 1 and 2 mg/mL, 48 h post-exposure): ca. 50% | Mortality (honey bees [5]; paraquat 1 and 2 mg/mL, 72 h post-exposure): ca. 100% | Mortality (honey bees [5]; paraquat, 48 h post-exposure): ca. 20% | Mortality (honey bees [5]; paraquat, 72 h post-exposure): ~58%

CC(N/C(=N\C#N)Nc1ccncc1)C(C)(C)C (stereo not shown) [pinacidil]
Antioxidant levels compared to untreated individuals ([2]; 24 h post-treatment): did not reduce | Reduction of total antioxidant concentrations ([2]; 72 h): 1.5 fold | POX activity (phenoloxidase (POX); 24- and 72-h exposure): no statistical differences | Reduction of titers of bee-relevant viruses (bee-relevant viruses; colonies treated with pinacidil in the field): up to 75 fold | Viral replication in nurse bees (bee-relevant viruses; field study): did not reduce viral replication | Viral replication in emerging bees (bee-relevant viruses; field study, mature colonies): near elimination | Increase in GOX activity compared to untreated bees (glucose oxidase (GOX); 24-h exposure): 3 fold | Increase in GOX activity compared to untreated bees (glucose oxidase (GOX); 72-h exposure): 2.3 fold | Mortality of pinacidil + IAPV versus control treatment ([4]; 24-, 72-, or 96-h post-inoculation): No significant difference | Reduction in mortality compared to control bees ([4]; pinacidil + IAPV, 48 and 120 h): 25% | Effect against FHV infection of bees (Flock House virus (FHV)): protective effect | Change in BQCV titer versus untreated colonies ([6]; emerging brood, 2 mM pinacidil): not significantly different | Reduction of BQCV replication compared to virus only [6, 7]: 3.8 fold | BQCV replication compared to virus only inoculated colonies ([6]; nurse/forager bees): did not reduce viral replication | Reduction in IAPV mRNA titer in the dorsal vessel versus IAPV-inoculated bees (IAPV): 17.5 fold | Reduction of LSV-2 replication compared to virus inoculation-only colonies (LSV-2): approximately fivefold | Change of DWV-A titer versus uninoculated colonies (DWV-A; emerging brood, 2 mM pinacidil): not significantly different | Reduction of change in DWV-A titer compared to virus only inoculated colonies (DWV-A; [7]): eight | DWV-A titers, virus only versus pinacidil + virus (DWV-A; nurse/forager bees): not significantly different | Dorsal vessel contraction rates (bee dorsal vessel): increases | Change of DWV-B titer versus uninoculated colonies (DWV-B; emerging brood, 2 mM pinacidil): not significantly different | Reduction of change in DWV-B titer compared to virus only inoculated colonies (DWV-B; [7]): sixfold | DWV-B titers, virus only versus pinacidil + virus (DWV-B; nurse/forager bees): not significantly different

CCCCNC(=O)NS(=O)(=O)c1ccc(C)cc1 [tolbutamide]
Effect on paraquat-induced toxicity (honey bees [3]; pre-exposure to modulator, 120-h feeding period): did not alter
